Experimental data from ChEMBL document CHEMBL5518175, “Design, synthesis, and biological evaluation of HDAC6 inhibitors targeting L1 loop and serine 531 residue” (Eur J Med Chem, 2024).

What was measured:
Histone deacetylase 2 = Histone deacetylase 2 (Homo sapiens, UniProt Q92769)
Description: Inhibition of HDAC2 (unknown origin) incubated for 30 mins by fluorescence plate reader assay

Histone deacetylase 3 = Histone deacetylase 3 (Homo sapiens, UniProt O15379); test: Inhibition of HDAC3 (unknown origin) incubated for 30 mins by fluorescence plate reader assay
Histone deacetylase 8 = target: T1, Histone deacetylase 8 (Homo sapiens, UniProt Q9BY41); test: Inhibition of HDAC8 (unknown origin) incubated for 30 mins by fluorescence plate reader assay
T1 sequence (Q9BY41 whole entry): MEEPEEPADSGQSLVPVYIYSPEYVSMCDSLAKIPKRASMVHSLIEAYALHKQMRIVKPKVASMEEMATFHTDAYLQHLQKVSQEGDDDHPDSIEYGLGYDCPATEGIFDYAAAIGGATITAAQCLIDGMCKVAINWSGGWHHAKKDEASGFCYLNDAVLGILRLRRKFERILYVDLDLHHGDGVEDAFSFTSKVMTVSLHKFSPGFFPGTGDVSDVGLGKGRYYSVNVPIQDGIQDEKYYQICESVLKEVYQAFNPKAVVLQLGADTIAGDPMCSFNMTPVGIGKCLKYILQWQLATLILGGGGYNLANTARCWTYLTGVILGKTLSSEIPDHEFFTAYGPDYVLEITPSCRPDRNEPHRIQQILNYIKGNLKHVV

Histone deacetylase 4 = Histone deacetylase 4 (Homo sapiens, UniProt P56524); test: Inhibition of HDAC4 (unknown origin) incubated for 30 mins by fluorescence plate reader assay
Histone deacetylase 5 = Histone deacetylase 5 (Homo sapiens, UniProt Q9UQL6); test: Inhibition of HDAC5 (unknown origin) incubated for 30 mins by fluorescence plate reader assay
Histone deacetylase 7 = target: T2, Histone deacetylase 7 (Homo sapiens, UniProt Q8WUI4); test: Inhibition of HDAC7 (unknown origin) incubated for 30 mins by fluorescence plate reader assay
T2 sequence (Q8WUI4 whole entry): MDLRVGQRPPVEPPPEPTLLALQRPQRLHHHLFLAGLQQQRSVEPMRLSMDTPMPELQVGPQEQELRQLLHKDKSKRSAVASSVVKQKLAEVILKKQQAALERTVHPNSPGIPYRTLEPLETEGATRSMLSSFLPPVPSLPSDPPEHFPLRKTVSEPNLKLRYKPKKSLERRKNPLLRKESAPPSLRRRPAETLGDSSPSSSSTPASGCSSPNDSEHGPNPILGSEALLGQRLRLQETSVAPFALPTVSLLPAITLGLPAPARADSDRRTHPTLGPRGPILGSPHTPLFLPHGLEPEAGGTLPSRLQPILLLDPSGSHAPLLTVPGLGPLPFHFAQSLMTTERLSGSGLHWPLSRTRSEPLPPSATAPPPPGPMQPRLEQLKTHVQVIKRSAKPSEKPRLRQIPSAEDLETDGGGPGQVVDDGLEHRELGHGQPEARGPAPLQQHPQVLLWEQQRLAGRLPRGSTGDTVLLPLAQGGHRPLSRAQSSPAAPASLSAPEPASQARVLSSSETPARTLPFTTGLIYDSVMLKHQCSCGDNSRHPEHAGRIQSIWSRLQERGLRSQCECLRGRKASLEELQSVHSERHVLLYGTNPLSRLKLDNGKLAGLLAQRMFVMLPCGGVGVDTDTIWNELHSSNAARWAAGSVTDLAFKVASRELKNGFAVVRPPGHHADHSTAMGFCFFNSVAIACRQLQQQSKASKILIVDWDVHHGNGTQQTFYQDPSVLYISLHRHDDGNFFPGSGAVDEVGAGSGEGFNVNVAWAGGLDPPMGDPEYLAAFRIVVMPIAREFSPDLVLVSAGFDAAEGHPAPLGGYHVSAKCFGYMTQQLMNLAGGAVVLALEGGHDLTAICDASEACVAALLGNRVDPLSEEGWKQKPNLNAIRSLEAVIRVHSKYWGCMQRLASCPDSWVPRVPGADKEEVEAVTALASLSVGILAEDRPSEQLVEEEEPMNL

Histone deacetylase 9 = Histone deacetylase 9 (Homo sapiens, UniProt Q9UKV0); test: Inhibition of HDAC9 (unknown origin) incubated for 30 mins by fluorescence plate reader assay
[1] = target: T3, Polyamine deacetylase HDAC10 (Homo sapiens, UniProt Q969S8); test: Inhibition of HDAC10 (unknown origin) incubated for 30 mins by fluorescence plate reader assay
T3 sequence (Q969S8 whole entry): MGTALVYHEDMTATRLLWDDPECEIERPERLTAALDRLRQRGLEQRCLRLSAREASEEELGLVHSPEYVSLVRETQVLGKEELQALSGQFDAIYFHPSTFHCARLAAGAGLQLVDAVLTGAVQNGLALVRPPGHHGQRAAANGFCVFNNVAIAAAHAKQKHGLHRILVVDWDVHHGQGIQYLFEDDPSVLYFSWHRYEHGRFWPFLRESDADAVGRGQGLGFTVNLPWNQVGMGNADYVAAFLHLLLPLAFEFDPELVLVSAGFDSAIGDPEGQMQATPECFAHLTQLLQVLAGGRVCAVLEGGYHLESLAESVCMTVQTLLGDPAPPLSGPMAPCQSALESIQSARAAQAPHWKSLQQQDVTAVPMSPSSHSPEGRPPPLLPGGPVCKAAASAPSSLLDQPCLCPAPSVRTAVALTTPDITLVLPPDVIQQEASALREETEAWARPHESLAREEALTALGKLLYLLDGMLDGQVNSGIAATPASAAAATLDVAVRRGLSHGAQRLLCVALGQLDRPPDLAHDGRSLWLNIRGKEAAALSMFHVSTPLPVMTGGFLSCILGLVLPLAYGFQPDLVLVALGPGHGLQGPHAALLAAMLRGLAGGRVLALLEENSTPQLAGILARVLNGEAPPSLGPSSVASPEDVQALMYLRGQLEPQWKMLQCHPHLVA

Histone deacetylase 11 = target: T4, Histone deacetylase 11 (Homo sapiens, UniProt Q96DB2); test: Inhibition of HDAC11 (unknown origin) incubated for 30 mins by fluorescence plate reader assay
T4 sequence (Q96DB2 whole entry): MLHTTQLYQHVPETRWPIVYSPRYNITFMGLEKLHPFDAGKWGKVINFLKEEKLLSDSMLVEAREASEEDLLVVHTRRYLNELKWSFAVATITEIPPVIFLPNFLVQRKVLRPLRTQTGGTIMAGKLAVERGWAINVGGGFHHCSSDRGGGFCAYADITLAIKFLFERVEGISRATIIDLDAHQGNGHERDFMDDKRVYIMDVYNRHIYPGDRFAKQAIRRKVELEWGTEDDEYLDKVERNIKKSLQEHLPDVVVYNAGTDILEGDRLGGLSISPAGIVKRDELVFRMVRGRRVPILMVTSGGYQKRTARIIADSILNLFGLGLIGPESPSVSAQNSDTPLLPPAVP

Histone deacetylase 1 = Histone deacetylase 1 (Homo sapiens, UniProt Q13547)
Description: Inhibition of HDAC1 (unknown origin) incubated for 30 mins by fluorescence plate reader assay

[2] = target: T5, Protein deacetylase HDAC6 (Homo sapiens, UniProt Q9UBN7)
T5 sequence (Q9UBN7 whole entry): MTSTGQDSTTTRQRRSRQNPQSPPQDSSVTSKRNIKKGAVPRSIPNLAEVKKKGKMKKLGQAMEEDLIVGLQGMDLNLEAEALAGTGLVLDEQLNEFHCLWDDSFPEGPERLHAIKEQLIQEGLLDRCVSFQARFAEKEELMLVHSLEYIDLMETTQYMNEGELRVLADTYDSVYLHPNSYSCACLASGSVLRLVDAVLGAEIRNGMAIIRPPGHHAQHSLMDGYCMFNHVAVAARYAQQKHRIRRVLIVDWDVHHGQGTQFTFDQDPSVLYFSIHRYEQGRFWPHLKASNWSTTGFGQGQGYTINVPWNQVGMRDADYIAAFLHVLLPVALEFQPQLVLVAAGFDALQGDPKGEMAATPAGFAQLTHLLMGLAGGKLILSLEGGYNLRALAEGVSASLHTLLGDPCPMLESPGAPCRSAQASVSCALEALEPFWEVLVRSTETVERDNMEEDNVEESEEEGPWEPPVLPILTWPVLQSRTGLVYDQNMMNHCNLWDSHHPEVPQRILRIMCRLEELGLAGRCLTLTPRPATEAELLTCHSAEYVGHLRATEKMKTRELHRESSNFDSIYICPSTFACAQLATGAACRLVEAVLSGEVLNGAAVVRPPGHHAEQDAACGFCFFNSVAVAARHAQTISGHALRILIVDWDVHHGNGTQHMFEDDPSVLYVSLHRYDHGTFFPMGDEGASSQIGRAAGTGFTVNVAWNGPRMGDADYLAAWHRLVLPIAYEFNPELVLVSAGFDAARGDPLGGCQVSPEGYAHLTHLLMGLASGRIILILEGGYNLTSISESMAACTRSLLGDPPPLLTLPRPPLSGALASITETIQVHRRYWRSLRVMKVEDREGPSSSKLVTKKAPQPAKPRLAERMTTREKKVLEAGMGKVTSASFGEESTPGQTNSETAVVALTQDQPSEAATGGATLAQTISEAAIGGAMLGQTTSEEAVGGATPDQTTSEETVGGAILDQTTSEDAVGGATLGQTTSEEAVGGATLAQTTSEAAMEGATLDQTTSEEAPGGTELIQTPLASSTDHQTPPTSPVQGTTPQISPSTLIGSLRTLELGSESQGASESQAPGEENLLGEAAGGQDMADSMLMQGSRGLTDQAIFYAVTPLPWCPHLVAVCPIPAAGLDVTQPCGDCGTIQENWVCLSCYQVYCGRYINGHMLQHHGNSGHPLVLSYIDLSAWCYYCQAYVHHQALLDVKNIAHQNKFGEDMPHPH
Description: Inhibition of HDAC6 (unknown origin) incubated for 30 mins by fluorescence plate reader assay

Sequence of Histone deacetylase 1 (Q13547 whole entry): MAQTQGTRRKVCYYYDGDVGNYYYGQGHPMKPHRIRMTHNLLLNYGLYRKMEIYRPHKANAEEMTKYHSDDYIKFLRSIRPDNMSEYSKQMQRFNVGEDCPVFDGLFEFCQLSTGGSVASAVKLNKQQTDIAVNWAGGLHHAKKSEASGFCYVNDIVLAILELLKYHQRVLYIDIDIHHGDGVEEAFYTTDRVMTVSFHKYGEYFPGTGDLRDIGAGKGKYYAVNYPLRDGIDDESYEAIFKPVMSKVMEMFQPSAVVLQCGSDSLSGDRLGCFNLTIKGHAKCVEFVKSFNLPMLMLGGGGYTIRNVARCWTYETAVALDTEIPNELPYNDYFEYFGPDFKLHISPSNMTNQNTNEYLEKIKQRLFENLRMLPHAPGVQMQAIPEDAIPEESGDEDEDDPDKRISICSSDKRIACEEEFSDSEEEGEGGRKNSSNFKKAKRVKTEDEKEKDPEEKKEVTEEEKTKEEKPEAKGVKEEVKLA
Sequence of Histone deacetylase 2 (Q92769 whole entry): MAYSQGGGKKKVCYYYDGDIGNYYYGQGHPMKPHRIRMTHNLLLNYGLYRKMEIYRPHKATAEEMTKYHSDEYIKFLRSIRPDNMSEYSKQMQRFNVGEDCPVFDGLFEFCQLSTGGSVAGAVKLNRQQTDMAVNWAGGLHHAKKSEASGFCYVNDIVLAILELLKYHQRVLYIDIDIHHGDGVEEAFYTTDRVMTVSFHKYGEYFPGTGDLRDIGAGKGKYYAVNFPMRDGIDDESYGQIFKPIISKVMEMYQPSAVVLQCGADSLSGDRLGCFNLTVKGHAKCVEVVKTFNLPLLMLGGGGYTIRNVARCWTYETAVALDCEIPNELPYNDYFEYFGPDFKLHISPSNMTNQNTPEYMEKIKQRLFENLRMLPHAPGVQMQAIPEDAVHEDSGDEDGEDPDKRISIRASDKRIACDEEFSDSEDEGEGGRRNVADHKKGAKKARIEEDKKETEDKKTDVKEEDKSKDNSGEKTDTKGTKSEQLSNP
Sequence of Histone deacetylase 3 (O15379 whole entry): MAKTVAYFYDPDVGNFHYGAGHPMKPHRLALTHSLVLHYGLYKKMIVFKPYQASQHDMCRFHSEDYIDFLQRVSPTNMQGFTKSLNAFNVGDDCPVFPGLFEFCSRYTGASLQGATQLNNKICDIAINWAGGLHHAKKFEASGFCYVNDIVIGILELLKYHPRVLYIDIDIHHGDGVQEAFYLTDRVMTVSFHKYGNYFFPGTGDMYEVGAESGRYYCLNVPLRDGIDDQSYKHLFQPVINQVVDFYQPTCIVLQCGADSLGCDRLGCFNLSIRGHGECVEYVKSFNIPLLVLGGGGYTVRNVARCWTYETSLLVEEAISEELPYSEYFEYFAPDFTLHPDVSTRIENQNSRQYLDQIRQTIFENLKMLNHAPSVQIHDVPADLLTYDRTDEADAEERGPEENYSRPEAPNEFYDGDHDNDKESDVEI
Sequence of Histone deacetylase 9 (Q9UKV0 whole entry): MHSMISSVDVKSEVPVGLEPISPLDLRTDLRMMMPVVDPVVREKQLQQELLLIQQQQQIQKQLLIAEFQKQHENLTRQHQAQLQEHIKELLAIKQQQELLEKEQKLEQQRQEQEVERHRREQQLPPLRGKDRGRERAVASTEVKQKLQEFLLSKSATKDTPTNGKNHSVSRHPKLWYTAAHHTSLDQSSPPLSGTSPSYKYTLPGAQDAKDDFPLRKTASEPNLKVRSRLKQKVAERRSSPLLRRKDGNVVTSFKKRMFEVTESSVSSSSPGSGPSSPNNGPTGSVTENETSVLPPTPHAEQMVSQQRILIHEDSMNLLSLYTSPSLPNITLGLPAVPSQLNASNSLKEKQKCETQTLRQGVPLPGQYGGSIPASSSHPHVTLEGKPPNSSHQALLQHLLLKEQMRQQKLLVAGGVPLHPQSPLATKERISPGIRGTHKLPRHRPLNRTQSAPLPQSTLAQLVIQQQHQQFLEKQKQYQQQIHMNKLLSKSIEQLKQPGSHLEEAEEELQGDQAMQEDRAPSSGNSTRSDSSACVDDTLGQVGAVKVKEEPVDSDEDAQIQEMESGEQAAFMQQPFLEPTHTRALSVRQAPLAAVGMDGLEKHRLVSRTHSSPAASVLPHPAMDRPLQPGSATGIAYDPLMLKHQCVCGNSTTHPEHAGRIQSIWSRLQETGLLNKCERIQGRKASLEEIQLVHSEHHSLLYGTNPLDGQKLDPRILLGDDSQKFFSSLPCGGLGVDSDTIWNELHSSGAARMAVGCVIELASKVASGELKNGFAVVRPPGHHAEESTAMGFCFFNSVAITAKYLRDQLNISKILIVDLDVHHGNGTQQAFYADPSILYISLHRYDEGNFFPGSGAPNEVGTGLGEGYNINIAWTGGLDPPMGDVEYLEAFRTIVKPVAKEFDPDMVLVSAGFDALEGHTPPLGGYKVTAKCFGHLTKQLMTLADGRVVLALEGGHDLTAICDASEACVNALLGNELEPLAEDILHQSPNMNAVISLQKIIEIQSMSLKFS
Sequence of Histone deacetylase 4 (P56524 whole entry): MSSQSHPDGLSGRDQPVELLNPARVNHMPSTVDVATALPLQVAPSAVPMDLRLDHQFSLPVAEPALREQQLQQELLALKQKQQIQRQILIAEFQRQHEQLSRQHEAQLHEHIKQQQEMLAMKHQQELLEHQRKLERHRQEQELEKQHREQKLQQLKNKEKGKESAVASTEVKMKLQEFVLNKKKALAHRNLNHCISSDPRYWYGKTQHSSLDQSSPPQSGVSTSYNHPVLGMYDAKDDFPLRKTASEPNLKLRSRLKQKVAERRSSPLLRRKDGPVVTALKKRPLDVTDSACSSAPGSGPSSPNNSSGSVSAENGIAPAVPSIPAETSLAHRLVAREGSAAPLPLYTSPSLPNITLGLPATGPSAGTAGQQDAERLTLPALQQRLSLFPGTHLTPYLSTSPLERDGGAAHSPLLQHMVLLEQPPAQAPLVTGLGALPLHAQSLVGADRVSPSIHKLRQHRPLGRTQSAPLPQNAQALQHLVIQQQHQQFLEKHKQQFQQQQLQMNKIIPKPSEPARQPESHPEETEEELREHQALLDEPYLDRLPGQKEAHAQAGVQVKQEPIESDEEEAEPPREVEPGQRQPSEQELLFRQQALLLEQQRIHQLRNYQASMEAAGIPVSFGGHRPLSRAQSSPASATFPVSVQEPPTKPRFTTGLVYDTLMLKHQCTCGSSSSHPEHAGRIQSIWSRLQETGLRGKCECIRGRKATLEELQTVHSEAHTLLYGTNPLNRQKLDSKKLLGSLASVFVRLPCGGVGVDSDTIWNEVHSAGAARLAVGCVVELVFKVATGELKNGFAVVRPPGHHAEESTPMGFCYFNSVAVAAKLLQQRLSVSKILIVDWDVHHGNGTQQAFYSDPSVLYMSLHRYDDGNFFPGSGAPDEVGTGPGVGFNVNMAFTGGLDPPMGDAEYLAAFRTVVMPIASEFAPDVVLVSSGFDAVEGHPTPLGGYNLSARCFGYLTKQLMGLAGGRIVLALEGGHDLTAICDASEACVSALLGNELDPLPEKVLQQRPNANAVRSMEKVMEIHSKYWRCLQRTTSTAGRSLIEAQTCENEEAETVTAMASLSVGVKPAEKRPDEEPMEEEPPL
Sequence of Histone deacetylase 5 (Q9UQL6 whole entry): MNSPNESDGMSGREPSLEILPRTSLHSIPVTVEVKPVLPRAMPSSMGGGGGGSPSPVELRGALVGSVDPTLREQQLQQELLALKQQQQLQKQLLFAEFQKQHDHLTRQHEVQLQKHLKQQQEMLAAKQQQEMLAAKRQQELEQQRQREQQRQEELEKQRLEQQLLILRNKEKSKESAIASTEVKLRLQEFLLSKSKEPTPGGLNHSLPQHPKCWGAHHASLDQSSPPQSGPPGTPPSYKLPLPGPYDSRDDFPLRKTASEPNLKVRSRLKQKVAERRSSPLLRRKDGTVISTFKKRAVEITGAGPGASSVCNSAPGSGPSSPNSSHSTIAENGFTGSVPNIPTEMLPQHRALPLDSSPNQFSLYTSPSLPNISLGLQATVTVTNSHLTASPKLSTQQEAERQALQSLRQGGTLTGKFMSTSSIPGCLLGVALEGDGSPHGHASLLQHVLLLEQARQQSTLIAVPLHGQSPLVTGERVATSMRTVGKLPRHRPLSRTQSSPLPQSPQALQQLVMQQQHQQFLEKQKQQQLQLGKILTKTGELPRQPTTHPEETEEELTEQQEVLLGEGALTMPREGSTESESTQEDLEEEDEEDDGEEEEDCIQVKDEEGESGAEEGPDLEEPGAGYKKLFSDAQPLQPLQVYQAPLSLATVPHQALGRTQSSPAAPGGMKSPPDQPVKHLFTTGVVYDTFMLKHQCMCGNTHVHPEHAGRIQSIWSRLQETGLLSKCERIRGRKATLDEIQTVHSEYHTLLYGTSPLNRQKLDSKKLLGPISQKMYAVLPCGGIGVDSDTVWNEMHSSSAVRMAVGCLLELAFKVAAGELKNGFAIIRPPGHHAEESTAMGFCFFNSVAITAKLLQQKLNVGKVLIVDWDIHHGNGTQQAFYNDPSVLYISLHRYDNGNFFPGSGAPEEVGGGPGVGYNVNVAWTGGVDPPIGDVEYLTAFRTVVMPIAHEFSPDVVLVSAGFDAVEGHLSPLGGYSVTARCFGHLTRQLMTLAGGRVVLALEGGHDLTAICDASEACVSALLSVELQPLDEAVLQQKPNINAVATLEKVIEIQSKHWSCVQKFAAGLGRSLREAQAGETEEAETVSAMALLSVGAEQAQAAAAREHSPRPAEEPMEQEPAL

Row | IC50 (Histone deacetylase 2) [nM] | IC50 (Histone deacetylase 3) [nM] | IC50 (Histone deacetylase 8) [nM] | IC50 (Histone deacetylase 4) [nM] | IC50 (Histone deacetylase 5) [nM] | IC50 (Histone deacetylase 7) [nM] | IC50 (Histone deacetylase 9) [nM] | IC50 [1] [nM] | IC50 (Histone deacetylase 11) [nM] | IC50 (Histone deacetylase 1) [nM] | IC50 [2] [nM] | Structure (SMILES)
1 | > 10000 | 1930 | 4480 | > 10000 | > 10000 | 4950 | > 10000 | 1410 | > 10000 | 850 |  | O=C(NO)c1ccc(CN(Cc2ccccc2)C(=O)c2ccccc2)cc1
2 |  |  |  |  |  |  |  |  |  | 941 | 87 | O=C(NO)c1ccc(CNC(=O)c2ccccc2)cc1
